Measurements as given in ChEMBL document CHEMBL3885861, “Open TG-GATES”.

Organism: Rattus norvegicus
Assay: Open TG-GATES - Regimen: Daily Repeat
Type: toxicity, organism-based, Sprague-Dawley
Parameters: regimen Daily Repeat, gender Male, age 6 weeks
Settings: in vivo, po, 1000 mg/kg, route gavage, dose level High; for APTT / Bas / Eos / Fbg / Hb / Ht / Lym / MCH / MCHC / MCV / Mono / Neu / PT / Plat / RBC / Ret / WBC: tissue Blood; for KIDNEY_L / KIDNEY_R / KIDNEY_TOTAL: tissue Kidney; for LIVER: tissue Liver; for A/G / ALP / ALT / AST / BUN / CRE / Ca / Cl / DBIL / GLC / IP / K / LDH / Na / PL / RALB / TBIL / TC / TG / TP / gamma-GTP: tissue Plasma

CN(C)[C@@H]1C(O)=C(C(N)=O)C(=O)[C@@]2(O)C(O)=C3C(=O)c4c(O)cccc4[C@@](C)(O)[C@H]3C[C@@H]12 [TETRACYCLINE]
TERMINAL_BW (72 h, time 3 day): 196.1 g | APTT (72 h, time 3 day): 16.3 s | Bas (72 h, time 3 day): 0% | Eos (72 h, time 3 day): 1.2% | Fbg (72 h, time 3 day): 220.4 mg/dL | Hb (72 h, time 3 day): 13.2 g/dL | Ht (72 h, time 3 day): 39.6% | Lym (72 h, time 3 day): 87.6% | MCH (72 h, time 3 day): 21.2 pg | MCHC (72 h, time 3 day): 33.2% | MCV (72 h, time 3 day): 63.8 fL | Mono (72 h, time 3 day): 4.6% | Neu (72 h, time 3 day): 6.6% | PT (72 h, time 3 day): 12.3 s | Plat (72 h, time 3 day): 111.2 x10_4/uL | RBC (72 h, time 3 day): 621.8 x10_4/ul | Ret (72 h, time 3 day): 5.2% | WBC (72 h, time 3 day): 98.6 x10_2/uL | KIDNEY_L (72 h, time 3 day): 0.9 g | KIDNEY_R (72 h, time 3 day): 0.9 g | KIDNEY_TOTAL (72 h, time 3 day): 1.8 g | LIVER (72 h, time 3 day): 8.4 g | A/G (72 h, time 3 day): 2.2 | ALP (72 h, time 3 day): 1151 IU/L | ALT (72 h, time 3 day): 37.8 IU/L | AST (72 h, time 3 day): 72.2 IU/L | BUN (72 h, time 3 day): 17.2 mg/dL | CRE (72 h, time 3 day): 0.5 mg/dL | Ca (72 h, time 3 day): 10.8 mg/dL | Cl (72 h, time 3 day): 105.8 meq/L | DBIL (72 h, time 3 day): 0.006 mg/dL | GLC (72 h, time 3 day): 181 mg/dL | IP (72 h, time 3 day): 9 mg/dL | K (72 h, time 3 day): 4.6 meq/L | LDH (72 h, time 3 day): 144.4 IU/L | Na (72 h, time 3 day): 140.8 meq/L | PL (72 h, time 3 day): 143.2 mg/dL | RALB (72 h, time 3 day): 3.8 g/dL | TBIL (72 h, time 3 day): 0.3 mg/dL | TC (72 h, time 3 day): 85.8 mg/dL | TG (72 h, time 3 day): 40.4 mg/dL | TP (72 h, time 3 day): 5.5 g/dL | gamma-GTP (72 h, time 3 day): 1.8 IU/L | TERMINAL_BW ([…], time 7 day): 225.1 g | TERMINAL_BW ([…], time 14 day): 289.3 g | TERMINAL_BW ([…], time 28 day): 356 g | APTT ([…], time 7 day): 16 s | Bas ([…], time 7 day): 0% | Eos ([…], time 7 day): 1.2% | Fbg ([…], time 7 day): 220.8 mg/dL | Hb ([…], time 7 day): 13.3 g/dL | Ht ([…], time 7 day): 39.5% | Lym ([…], time 7 day): 86.6% | MCH ([…], time 7 day): 20.8 pg | MCHC ([…], time 7 day): 33.6% | MCV ([…], time 7 day): 61.7 fL | Mono ([…], time 7 day): 5.8% | Neu ([…], time 7 day): 6.8% | PT ([…], time 7 day): 12.3 s | Plat ([…], time 7 day): 115 x10_4/uL | RBC ([…], time 7 day): 639.8 x10_4/ul | Ret ([…], time 7 day): 6.4% | WBC ([…], time 7 day): 124.1 x10_2/uL | APTT ([…], time 14 day): 16.2 s | Bas ([…], time 14 day): 0% | Eos ([…], time 14 day): 1% | Fbg ([…], time 14 day): 225.4 mg/dL | Hb ([…], time 14 day): 13.5 g/dL | Ht ([…], time 14 day): 40.9% | Lym ([…], time 14 day): 91.2% | MCH ([…], time 14 day): 20.6 pg | MCHC ([…], time 14 day): 33% | MCV ([…], time 14 day): 62.5 fL | Mono ([…], time 14 day): 2.6% | Neu ([…], time 14 day): 5.4% | PT ([…], time 14 day): 11.9 s | Plat ([…], time 14 day): 109.6 x10_4/uL | RBC ([…], time 14 day): 656 x10_4/ul | Ret ([…], time 14 day): 6.7% | WBC ([…], time 14 day): 146 x10_2/uL | APTT ([…], time 28 day): 16.6 s | Bas ([…], time 28 day): 0% | Eos ([…], time 28 day): 1% | Fbg ([…], time 28 day): 233.6 mg/dL | Hb ([…], time 28 day): 14.4 g/dL | Ht ([…], time 28 day): 43.2% | Lym ([…], time 28 day): 86.8% | MCH ([…], time 28 day): 19 pg | MCHC ([…], time 28 day): 33.4% | MCV ([…], time 28 day): 56.9 fL | Mono ([…], time 28 day): 3.6% | Neu ([…], time 28 day): 8.6% | PT ([…], time 28 day): 11.8 s | Plat ([…], time 28 day): 95 x10_4/uL | RBC ([…], time 28 day): 761.4 x10_4/ul | Ret ([…], time 28 day): 2.9% | WBC ([…], time 28 day): 154.2 x10_2/uL | KIDNEY_L ([…], time 7 day): 1 g | KIDNEY_R ([…], time 7 day): 1 g | KIDNEY_TOTAL ([…], time 7 day): 1.9 g | KIDNEY_L ([…], time 14 day): 1.1 g | KIDNEY_R ([…], time 14 day): 1.2 g | KIDNEY_TOTAL ([…], time 14 day): 2.3 g | KIDNEY_L ([…], time 28 day): 1.3 g | KIDNEY_R ([…], time 28 day): 1.2 g | KIDNEY_TOTAL ([…], time 28 day): 2.5 g | LIVER ([…], time 7 day): 9.5 g | LIVER ([…], time 14 day): 11.9 g | LIVER ([…], time 28 day): 12.2 g | A/G ([…], time 7 day): 2.1 | ALP ([…], time 7 day): 1114.8 IU/L | ALT ([…], time 7 day): 36.6 IU/L | AST ([…], time 7 day): 72 IU/L | BUN ([…], time 7 day): 17 mg/dL | CRE ([…], time 7 day): 0.5 mg/dL | Ca ([…], time 7 day): 11.1 mg/dL | Cl ([…], time 7 day): 106.2 meq/L | DBIL ([…], time 7 day): 0.008 mg/dL | GLC ([…], time 7 day): 179.6 mg/dL | IP ([…], time 7 day): 9 mg/dL | K ([…], time 7 day): 5.2 meq/L | LDH ([…], time 7 day): 116.4 IU/L | Na ([…], time 7 day): 140.4 meq/L | PL ([…], time 7 day): 139 mg/dL | RALB ([…], time 7 day): 3.8 g/dL | TBIL ([…], time 7 day): 0.2 mg/dL | TC ([…], time 7 day): 74 mg/dL | TG ([…], time 7 day): 56.2 mg/dL | TP ([…], time 7 day): 5.6 g/dL | gamma-GTP ([…], time 7 day): 1.2 IU/L | A/G ([…], time 14 day): 2 | ALP ([…], time 14 day): 1024 IU/L | ALT ([…], time 14 day): 33.8 IU/L | AST ([…], time 14 day): 64.8 IU/L | BUN ([…], time 14 day): 20.2 mg/dL | CRE ([…], time 14 day): 0.6 mg/dL | Ca ([…], time 14 day): 11.3 mg/dL | Cl ([…], time 14 day): 104 meq/L | DBIL ([…], time 14 day): 0.074 mg/dL | GLC ([…], time 14 day): 176 mg/dL | IP ([…], time 14 day): 9.2 mg/dL | K ([…], time 14 day): 4.9 meq/L | LDH ([…], time 14 day): 156.6 IU/L | Na ([…], time 14 day): 143 meq/L | PL ([…], time 14 day): 168.8 mg/dL | RALB ([…], time 14 day): 3.9 g/dL | TBIL ([…], time 14 day): 0.3 mg/dL | TC ([…], time 14 day): 89.2 mg/dL | TG ([…], time 14 day): 84.2 mg/dL | TP ([…], time 14 day): 5.9 g/dL | gamma-GTP ([…], time 14 day): 2 IU/L | A/G ([…], time 28 day): 1.8 | ALP ([…], time 28 day): 773.6 IU/L | ALT ([…], time 28 day): 35.2 IU/L | AST ([…], time 28 day): 71.8 IU/L | BUN ([…], time 28 day): 19.2 mg/dL | CRE ([…], time 28 day): 0.6 mg/dL | Ca ([…], time 28 day): 11.1 mg/dL | Cl ([…], time 28 day): 106 meq/L | DBIL ([…], time 28 day): 0.024 mg/dL | GLC ([…], time 28 day): 168.8 mg/dL | IP ([…], time 28 day): 7.6 mg/dL | K ([…], time 28 day): 4.4 meq/L | LDH ([…], time 28 day): 143.6 IU/L | Na ([…], time 28 day): 142 meq/L | PL ([…], time 28 day): 140.4 mg/dL | RALB ([…], time 28 day): 3.6 g/dL | TBIL ([…], time 28 day): 0.3 mg/dL | TC ([…], time 28 day): 77.6 mg/dL | TG ([…], time 28 day): 73.8 mg/dL | TP ([…], time 28 day): 5.7 g/dL | gamma-GTP ([…], time 28 day): 1.6 IU/L
